Data taken from ChEMBL document CHEMBL1135876, “N-alkylaminoacids and their derivatives interact with melanocortin receptors” (Bioorg Med Chem Lett, 2002).

Key:
[1] = molecular target: T1, Melanocortin receptor 5 (Homo sapiens, UniProt P33032); assay: Binding affinity in competition with [125I]NDP-MSH on recombinant melanocortin 5 receptor
[2] = molecular target: T2, Melanocyte-stimulating hormone receptor (Homo sapiens, UniProt Q01726); assay: Binding affinity in competition with [125I]NDP-MSH on recombinant melanocortin 1 receptor
T2 sequence (Q01726 whole entry): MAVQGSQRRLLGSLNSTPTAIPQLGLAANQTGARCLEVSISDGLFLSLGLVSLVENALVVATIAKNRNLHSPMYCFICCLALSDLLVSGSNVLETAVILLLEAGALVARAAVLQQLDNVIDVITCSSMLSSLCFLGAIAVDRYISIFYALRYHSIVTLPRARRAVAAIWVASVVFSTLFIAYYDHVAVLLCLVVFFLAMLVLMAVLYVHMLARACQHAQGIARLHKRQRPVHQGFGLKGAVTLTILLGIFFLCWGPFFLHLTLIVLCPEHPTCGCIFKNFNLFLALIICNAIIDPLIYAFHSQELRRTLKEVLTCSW

[3] = molecular target: Melanocortin receptor 4 (Homo sapiens, UniProt P32245); assay: Binding affinity in competition with [125I]NDP-MSH on recombinant melanocortin 4 receptor
Sequence of Melanocortin receptor 4 (P32245 whole entry): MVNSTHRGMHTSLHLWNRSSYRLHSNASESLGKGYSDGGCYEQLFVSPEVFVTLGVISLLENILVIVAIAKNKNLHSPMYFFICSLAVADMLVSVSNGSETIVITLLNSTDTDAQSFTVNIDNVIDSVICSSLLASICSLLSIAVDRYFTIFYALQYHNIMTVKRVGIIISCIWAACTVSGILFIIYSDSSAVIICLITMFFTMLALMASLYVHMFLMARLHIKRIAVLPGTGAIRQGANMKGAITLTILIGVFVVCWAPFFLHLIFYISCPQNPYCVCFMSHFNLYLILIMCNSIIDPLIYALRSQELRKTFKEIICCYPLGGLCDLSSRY

[4] = molecular target: Melanocortin receptor 3 (Homo sapiens, UniProt P41968); assay: Binding affinity in competition with [125I]NDP-MSH on recombinant melanocortin 3 receptor
Sequence of Melanocortin receptor 3 (P41968 whole entry): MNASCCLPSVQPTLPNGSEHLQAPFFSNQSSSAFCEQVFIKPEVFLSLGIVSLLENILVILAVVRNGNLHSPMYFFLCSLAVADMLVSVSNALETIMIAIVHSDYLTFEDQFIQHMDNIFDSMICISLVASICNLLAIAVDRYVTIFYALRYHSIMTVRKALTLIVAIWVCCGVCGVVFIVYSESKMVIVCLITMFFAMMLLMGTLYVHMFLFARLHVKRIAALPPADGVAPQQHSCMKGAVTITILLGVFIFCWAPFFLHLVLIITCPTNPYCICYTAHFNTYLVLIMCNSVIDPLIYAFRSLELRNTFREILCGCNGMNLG

[5] = molecular target: T1, Melanocortin receptor 5; assay: Tested for its binding affinity in competition with [125I]NDP-MSH on recombinant Melanocortin 5 receptor; nb = no binding
[6] = molecular target: T2, Melanocyte-stimulating hormone receptor; assay: Tested for its binding affinity in competition with [125I]NDP-MSH on recombinant human Melanocortin 1 receptor; nb = no binding

T1 sequence (P33032 whole entry): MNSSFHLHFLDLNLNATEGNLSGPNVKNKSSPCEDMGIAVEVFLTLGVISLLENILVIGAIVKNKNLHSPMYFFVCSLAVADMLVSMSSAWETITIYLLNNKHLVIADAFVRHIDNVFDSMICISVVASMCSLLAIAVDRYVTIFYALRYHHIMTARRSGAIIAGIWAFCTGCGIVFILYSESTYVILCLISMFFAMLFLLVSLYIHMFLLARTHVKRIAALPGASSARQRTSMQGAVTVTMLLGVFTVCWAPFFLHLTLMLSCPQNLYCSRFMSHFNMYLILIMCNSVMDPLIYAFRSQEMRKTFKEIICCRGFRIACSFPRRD

SMILES	Ki [1] [µM]	Ki [2] [µM]	Ki [3] [µM]	Ki [4] [µM]	Ki [5]	Ki [6]
NC(N)=NCCCC(NCc1c[nH]c2ccccc12)C(=O)O (centres undefined)	> 1	> 1	> 1	> 1	–	–
NC(N)=NCCCNC(=O)[C@@H]1C[C@H](O)CN1Cc1ccc2ccccc2c1	221	2.9	279	82	–	–
C=CCOC(=O)[C@H](CCCNC(=N)N)NCc1ccc2ccccc2c1	15	5.9	15	28	–	–
N=C(N)NCCC[C@H](NCc1ccc2ccccc2c1)C(=O)Nc1ccc2ccccc2c1	6.6	2.9	14	14	–	–
COc1ccc(CN[C@H](CCCNC(=N)N)C(=O)O)c(Cl)c1OC	> 1	> 1	> 1	> 1	–	–
COc1ccc(CN[C@H](CCCNC(=N)N)C(=O)O)cc1OC	> 1	> 1	> 1	> 1	–	–
COc1ccc(CNC(CCCN=C(N)N)C(=O)O)cc1OC (centres undefined)	> 1	> 1	> 1	> 1	–	–
O=C(NCc1ccc2ccccc2c1)[C@H]1CCCN1CCc1c[nH]c2ccccc12	–	–	166	752	Not Active	Not Active
N=C(N)NCCC[C@@H](NCc1ccc2ccccc2c1)C(N)=O	125	> 1000	> 1000	> 1000	–	–
N=C(N)NCCC[C@H](NCc1ccc2ccccc2c1)C(N)=O	> 1	> 1	> 1	> 1	–	–
N=C(N)NCCCNC(=O)[C@H](CCCN=C(N)N)NCc1ccc2ccccc2c1	–	4.5	30	4.8	Not Active	–
N=C(N)NCCC[C@H](NCC1CCc2ccccc2C1)C(N)=O (some centres undefined)	130	> 1000	134	155	–	–
COc1ccc(CN[C@@H](CCCNC(=N)N)C(N)=O)c(Cl)c1OC	> 1	> 1	> 1	> 1	–	–
O=C(NCCc1c[nH]cn1)[C@@H]1C[C@H](O)CN1Cc1ccc2ccccc2c1	50	–	150	161	–	Not Active
COc1ccc(CN[C@@H](CCCN=C(N)N)C(N)=O)cc1OC	> 1	> 1	> 1	> 1	–	–

Second part, led by results:

Ki [1] [µM]	Ki [2] [µM]	Ki [3] [µM]	Ki [4] [µM]	SMILES	Ki [5]	Ki [6]
8.7	1.3	6.8	6.4	N=C(N)NCCC[C@H](NCc1ccc2ccccc2c1)C(=O)Nc1cccc2ccccc12	–	–
> 1	> 1	> 1	> 1	NC(N)=NCCC[C@@H](NCc1c[nH]c2ccccc12)C(=O)O	–	–
184	> 1000	205	> 1000	N=C(N)NCCC[C@H](NCc1c[nH]c2ccccc12)C(=O)N[C@@H](Cc1c[nH]c2ccccc12)C(N)=O	–	–
> 1	> 1	> 1	> 1	N=C(N)NCCC[C@H](NCc1c[nH]c2ccccc12)C(N)=O	–	–
60	26	> 1000	> 1000	NC(=O)[C@H](Cc1ccc2ccccc2c1)NCc1c[nH]c2ccccc12	–	–
56	32	56	147	N=C(N)NCCC[C@@H](NCc1ccc2ccccc2c1)C(=O)N[C@@H](Cc1c[nH]c2ccccc12)C(N)=O	–	–
74	29	105	107	N=C(N)NCCC[C@H](NCc1ccc2ccccc2c1)C(=O)N[C@@H](Cc1c[nH]c2ccccc12)C(N)=O	–	–
> 1	> 1	> 1	> 1	N=C(N)NCCC[C@@H](NCc1c[nH]c2ccccc12)C(N)=O	–	–
37	15	64	53	NC(=O)[C@@H](Cc1c[nH]c2ccccc12)NCc1ccc2ccccc2c1	–	–
95	74	> 1000	> 1000	NC(=O)[C@@H](Cc1ccc2ccccc2c1)NCc1c[nH]c2ccccc12	–	–
42	8.7	139	56	NC(=O)[C@H](Cc1c[nH]c2ccccc12)NCc1ccc2ccccc2c1	–	–
